Results reported in paper PMC7382501 (Nature Communications, 2020).

How the values were obtained:
Mtb FasR = conditions: ref Mondino et al Mol Microbiol 2013 89:372; cited from earlier work
FasRwt = FasRwt (Mycobacterium tuberculosis, UniProt O05858)
Chain of FasRwt (O05858 whole entry): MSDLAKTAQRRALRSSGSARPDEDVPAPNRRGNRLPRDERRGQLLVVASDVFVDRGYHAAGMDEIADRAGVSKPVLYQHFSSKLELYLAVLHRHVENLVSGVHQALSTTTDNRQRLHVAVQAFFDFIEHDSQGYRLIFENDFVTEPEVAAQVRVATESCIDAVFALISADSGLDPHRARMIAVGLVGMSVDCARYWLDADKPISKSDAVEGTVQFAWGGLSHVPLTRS

SMILES	triggering of DNA-dissociation (Mtb FasR)	k, exponential decay rate of full-length FasR under trypsin proteolysis (FasRwt)
CCCCCCCCCCCCCC(=O)O [C14, myristic acid]	ineffective at triggering DNA-dissociation	–
CCCCCCCCCCCCCCCCCCCC(=O)SCCNC(=O)CCNC(=O)[C@H](O)C(C)(C)COP(=O)(O)OP(=O)(O)OC[C@H]1O[C@@H](n2cnc3c(N)ncnc32)[C@H](O)[C@@H]1OP(=O)(O)O [C20-CoA, arachidoyl-CoA]	–	0.11
